Reference: patent publication US20190016689A1, “NOVEL FLUORINATED QUINAZOLINE DERIVATIVES AS EGFR INHIBITORS” (TRILLIUM THERAPEUTICS INC., priority 2016, published 2019)
Like-named read-outs stand apart in the source and are kept apart here.

Assays:
[1] = Plasma protein binding (equilibrium dialysis); format: in vitro ADME; conditions: pH 7.4, dialysis 6 hours
Method: Prepare a basic solution by dissolving 14.2 g/L Na2HPO4 and 8.77 g/L NaCl in deionized water. Store at 4° C. for up to 7 days. Prepare an acidic solution by dissolving 15.6 g/L NaH2PO4.2H2O and 8.77 g/L NaCl in deionized water. Store at 4° C. for up to 7 days. Titrate the basic solution with the acidic solution to pH 7.4. Store at 4° C. for up to 7 days. Check pH on the day of experiment and adjust if outside specification of 7.4±0.1.
b—Preparation of Dialysis Membranes Soak the dialysis membranes in ultrapure water for 60 minutes to separate strips, then in 20% ethanol for 20 minutes, finally in dialysis buffer for 20 minutes. c—Preparation of Plasma
Thaw the frozen plasma immediately in a 37° C. water bath.
Centrifuge plasma at 3,220 g for 10 minutes at room temperature to remove clots and collect supernatant into a fresh tube. Check and record the pH of the plasma.
Note: a) Only use plasma that has been thawed no more than twice since arrival. b) Only use plasma within the range of pH 7 to pH 8.
The working solutions of test compound and control compound ketoconazole are prepared in 50% water/50% acetonitrile and DMSO at the concentration of 200 μM, respectively. And then remove 3 μL of working solution to mix with 597 μL of human, rat and mouse plasma to achieve final concentration of 1 μM (0.5% DMSO). Vortex thoroughly.
Assemble the dialysis set up following the manufacturer's instructions. Load cells with 120 μL of plasma sample and dialyzed against equal volume of dialysis buffer (PBS). The assay is performed in duplicate. Seal the dialysis plate and place the plate in an incubator at 37° C. with 5% CO2 at approximately 100 rpm for 6 hours. At the end of dialysis, remove seal and pipette 50 μL each of post-dialysis samples from both buffer and plasma chambers into separate tubes in plate.
Add 50 μL of blank plasma to the buffer samples, and an equal volume of PBS to the collected plasma samples. Add 300 μL of room temperature quench solution (acetonitrile containing internal standards (IS, 200 nM Labetalol, 100 nM Alprazolam and 2 μM Ketoprofen)) to precipitate protein. Vortex for 5 minutes. Samples in plate are centrifuged at 3,220 g for 30 minutes at room temperature. Transfer 100 μL of the supernatant to a new plate. The supernatant may be diluted with 100 μL or 200 μL water according to the LC/MS signal response and peak shape. Mix well and analyze samples using LC/MS/MS.

[2] = Log P determination (HPLC with reference substances); format: physicochemical; conditions: HPLC retention against reference substances of known log P
Method: Prepare thiourea in acetonitrile and ultrapure water mixture (1:1 in v:v) as unretained organic substance sample. Prepare acetanilide, methyl benzoate, benzophenone, benzyl benzoate, fluoranthene and DDT in acetonitrile and ultrapure water mixture (1:1 in v:v) as reference substances mixture.
Prepare the stock solutions of test compounds and control compound progesterone in acetonitrile at the concentration of 2 mM. Dilute one volume of the stock solution with one volume of ultrapure water. If not soluble, filtrate the sample using a 0.45 μm nylon membrane.
Prepare acidic or basic mobile phase according to the character of test compounds. Run a blank sample (ultrapure water mixture (1:1 in v:v)), followed by unretained organic substance sample and reference substances mixture. Then run the test compounds and control compound in singlet, and at the end of the batch rerun the reference substances mixture.

[3] = molecular target: CYP 3A4 (Homo sapiens, UniProt P08684); experiment: CYP450 inhibition; format: in vitro ADME; conditions: Testosterone
Method: Prepare stock solutions of the test compound and positive control compounds described in Table 8 in DMSO at 0, 0.2, 1, 2, 10, 50, 200, 2000 and 10000 μM. Transfer 1 μL of the stock solutions to the Incubation Plate. The final concentrations of test compound or positive control compound are 0, 0.001, 0.005, 0.01, 0.05, 0.25, 1, 10 and 50 μM. All experiments are performed in duplicate.

[4] = molecular target: BLK (B-lymphoid TK) (Homo sapiens, UniProt P51451); experiment: Kinase assays, selectivity panel (qPCR); conditions: read-out: % Control @ 300 nM
[5] = tested on: NCI-H522; experiment: NCI screening panel (SRB); format: cell-based; conditions: Homo sapiens, NCI-H522 (NSCLC), 48 h; for CC50: read-out: LC50 (the source's name)
[6] = tested on: SF-295; experiment: NCI screening panel (SRB); format: cell-based; conditions: Homo sapiens, SF-295 (CNS), 48 h; for CC50: read-out: LC50 (the source's name)
[7] = tested on: T-47D; experiment: NCI screening panel (SRB); format: cell-based; conditions: Homo sapiens, T47D, T-47D (Breast), 48 h; for CC50: read-out: LC50 (the source's name)
[8] = tested on: OVCAR-4; experiment: NCI screening panel (SRB); format: cell-based; conditions: Homo sapiens, OVCAR-4 (Ovarian), 48 h; for CC50: read-out: LC50 (the source's name)
[9] = tested on: SK-OV-3; experiment: NCI screening panel (SRB); format: cell-based; conditions: Homo sapiens, SK-OV-3 (Ovarian), 48 h; for CC50: read-out: LC50 (the source's name)
[10] = molecular target: EGFR (L858R) (Homo sapiens, UniProt P00533, L858R); experiment: Kinase assays, selectivity panel (qPCR); conditions: read-out: % Control @ 300 nM
[11] = molecular target: EGFR (L858R, T790M) (Homo sapiens, UniProt P00533, L858R/T790M); experiment: Kinase assays, selectivity panel (qPCR); conditions: read-out: % Control @ 300 nM
[12] = tested on: MCF7; experiment: NCI screening panel (SRB); format: cell-based; conditions: Homo sapiens, MCF7 (Breast), 48 h; for CC50: read-out: LC50 (the source's name)
[13] = tested on: 786-0; experiment: NCI screening panel (SRB); format: cell-based; conditions: Homo sapiens, 786-0 (Renal), 48 h; for CC50: read-out: LC50 (the source's name)
[14] = molecular target: ERBB4 (Homo sapiens, UniProt Q15303); experiment: Kinase assays, selectivity panel (qPCR); conditions: read-out: % Control @ 300 nM
[15] = tested on: EKVX; experiment: NCI screening panel (SRB); format: cell-based; conditions: Homo sapiens, EKVX (NSCLC), 48 h; for CC50: read-out: LC50 (the source's name)
[16] = molecular target: ERBB2 (Homo sapiens, UniProt P04626); experiment: Kinase assays, selectivity panel (qPCR); conditions: read-out: % Control @ 300 nM
[17] = human, read-out: Human Plasma % Bound (converted)
[18] = mouse, read-out: Mouse Plasma % Bound (converted)
[19] = rat, read-out: Rat Plasma % Bound (converted)

Sequence of ERBB2 (P04626 23-1255): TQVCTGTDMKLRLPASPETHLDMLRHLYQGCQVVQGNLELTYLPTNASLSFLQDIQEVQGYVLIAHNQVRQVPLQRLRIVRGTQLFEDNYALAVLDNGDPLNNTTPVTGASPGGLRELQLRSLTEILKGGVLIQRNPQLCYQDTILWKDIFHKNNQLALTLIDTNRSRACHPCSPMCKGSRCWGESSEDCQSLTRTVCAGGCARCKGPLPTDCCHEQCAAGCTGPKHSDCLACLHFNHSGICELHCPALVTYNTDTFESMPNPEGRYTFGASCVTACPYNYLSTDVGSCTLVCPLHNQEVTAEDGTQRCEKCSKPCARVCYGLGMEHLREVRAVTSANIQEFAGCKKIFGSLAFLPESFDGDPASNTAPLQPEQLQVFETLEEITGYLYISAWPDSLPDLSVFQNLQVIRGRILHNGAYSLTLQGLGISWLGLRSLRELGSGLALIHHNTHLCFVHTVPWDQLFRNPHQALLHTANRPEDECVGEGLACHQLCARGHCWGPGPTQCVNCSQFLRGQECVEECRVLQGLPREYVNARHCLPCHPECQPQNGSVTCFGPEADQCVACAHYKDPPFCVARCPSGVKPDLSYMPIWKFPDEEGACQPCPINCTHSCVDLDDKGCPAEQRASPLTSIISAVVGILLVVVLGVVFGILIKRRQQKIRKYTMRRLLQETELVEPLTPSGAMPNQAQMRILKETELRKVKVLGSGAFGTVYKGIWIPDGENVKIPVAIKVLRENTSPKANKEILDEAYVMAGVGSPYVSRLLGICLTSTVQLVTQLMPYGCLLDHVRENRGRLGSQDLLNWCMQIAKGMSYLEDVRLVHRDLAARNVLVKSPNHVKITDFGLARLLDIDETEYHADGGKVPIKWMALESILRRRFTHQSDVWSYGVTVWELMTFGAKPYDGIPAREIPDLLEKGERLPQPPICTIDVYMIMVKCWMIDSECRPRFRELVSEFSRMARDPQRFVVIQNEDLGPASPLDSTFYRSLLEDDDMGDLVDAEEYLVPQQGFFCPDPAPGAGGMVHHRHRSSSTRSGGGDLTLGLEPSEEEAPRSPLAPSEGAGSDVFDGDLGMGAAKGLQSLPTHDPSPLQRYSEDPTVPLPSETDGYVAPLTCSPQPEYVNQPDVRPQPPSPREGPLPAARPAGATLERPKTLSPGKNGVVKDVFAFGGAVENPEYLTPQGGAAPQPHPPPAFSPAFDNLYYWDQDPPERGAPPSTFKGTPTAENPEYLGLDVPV
Sequence of ERBB4 (Q15303 26-1308): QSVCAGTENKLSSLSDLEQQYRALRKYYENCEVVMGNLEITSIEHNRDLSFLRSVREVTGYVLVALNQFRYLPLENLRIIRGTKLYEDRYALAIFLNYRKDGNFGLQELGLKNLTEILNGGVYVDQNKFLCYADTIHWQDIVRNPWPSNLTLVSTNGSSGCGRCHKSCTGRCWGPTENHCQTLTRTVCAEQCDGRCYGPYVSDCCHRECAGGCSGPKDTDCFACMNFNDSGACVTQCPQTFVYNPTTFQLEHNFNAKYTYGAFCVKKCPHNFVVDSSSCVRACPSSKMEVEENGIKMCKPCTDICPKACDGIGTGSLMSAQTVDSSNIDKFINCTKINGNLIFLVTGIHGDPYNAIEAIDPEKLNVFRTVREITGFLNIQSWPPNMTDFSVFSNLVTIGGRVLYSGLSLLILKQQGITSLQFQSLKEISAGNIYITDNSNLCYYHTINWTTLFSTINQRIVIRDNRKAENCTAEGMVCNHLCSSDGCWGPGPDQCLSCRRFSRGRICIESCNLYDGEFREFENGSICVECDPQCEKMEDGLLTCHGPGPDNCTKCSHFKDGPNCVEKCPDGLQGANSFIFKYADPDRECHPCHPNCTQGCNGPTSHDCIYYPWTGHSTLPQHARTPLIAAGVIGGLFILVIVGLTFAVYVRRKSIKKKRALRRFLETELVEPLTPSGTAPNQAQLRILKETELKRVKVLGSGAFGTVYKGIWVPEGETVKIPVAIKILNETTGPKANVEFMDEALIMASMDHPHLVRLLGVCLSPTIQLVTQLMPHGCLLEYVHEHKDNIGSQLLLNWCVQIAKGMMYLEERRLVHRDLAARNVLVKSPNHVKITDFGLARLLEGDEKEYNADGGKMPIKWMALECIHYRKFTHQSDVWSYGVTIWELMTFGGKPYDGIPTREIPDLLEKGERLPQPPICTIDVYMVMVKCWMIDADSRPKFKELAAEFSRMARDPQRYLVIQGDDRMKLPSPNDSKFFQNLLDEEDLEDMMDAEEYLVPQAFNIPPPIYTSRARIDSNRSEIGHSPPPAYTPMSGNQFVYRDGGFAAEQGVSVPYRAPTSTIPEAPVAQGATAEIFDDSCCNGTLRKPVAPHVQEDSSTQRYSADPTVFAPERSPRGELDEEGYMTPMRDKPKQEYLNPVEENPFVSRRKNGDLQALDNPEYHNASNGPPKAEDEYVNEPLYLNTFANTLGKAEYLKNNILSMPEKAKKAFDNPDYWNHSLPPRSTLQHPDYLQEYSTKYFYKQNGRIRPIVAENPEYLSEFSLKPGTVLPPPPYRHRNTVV
Sequence of EGFR (L858R) (P00533 25-1210 L858R): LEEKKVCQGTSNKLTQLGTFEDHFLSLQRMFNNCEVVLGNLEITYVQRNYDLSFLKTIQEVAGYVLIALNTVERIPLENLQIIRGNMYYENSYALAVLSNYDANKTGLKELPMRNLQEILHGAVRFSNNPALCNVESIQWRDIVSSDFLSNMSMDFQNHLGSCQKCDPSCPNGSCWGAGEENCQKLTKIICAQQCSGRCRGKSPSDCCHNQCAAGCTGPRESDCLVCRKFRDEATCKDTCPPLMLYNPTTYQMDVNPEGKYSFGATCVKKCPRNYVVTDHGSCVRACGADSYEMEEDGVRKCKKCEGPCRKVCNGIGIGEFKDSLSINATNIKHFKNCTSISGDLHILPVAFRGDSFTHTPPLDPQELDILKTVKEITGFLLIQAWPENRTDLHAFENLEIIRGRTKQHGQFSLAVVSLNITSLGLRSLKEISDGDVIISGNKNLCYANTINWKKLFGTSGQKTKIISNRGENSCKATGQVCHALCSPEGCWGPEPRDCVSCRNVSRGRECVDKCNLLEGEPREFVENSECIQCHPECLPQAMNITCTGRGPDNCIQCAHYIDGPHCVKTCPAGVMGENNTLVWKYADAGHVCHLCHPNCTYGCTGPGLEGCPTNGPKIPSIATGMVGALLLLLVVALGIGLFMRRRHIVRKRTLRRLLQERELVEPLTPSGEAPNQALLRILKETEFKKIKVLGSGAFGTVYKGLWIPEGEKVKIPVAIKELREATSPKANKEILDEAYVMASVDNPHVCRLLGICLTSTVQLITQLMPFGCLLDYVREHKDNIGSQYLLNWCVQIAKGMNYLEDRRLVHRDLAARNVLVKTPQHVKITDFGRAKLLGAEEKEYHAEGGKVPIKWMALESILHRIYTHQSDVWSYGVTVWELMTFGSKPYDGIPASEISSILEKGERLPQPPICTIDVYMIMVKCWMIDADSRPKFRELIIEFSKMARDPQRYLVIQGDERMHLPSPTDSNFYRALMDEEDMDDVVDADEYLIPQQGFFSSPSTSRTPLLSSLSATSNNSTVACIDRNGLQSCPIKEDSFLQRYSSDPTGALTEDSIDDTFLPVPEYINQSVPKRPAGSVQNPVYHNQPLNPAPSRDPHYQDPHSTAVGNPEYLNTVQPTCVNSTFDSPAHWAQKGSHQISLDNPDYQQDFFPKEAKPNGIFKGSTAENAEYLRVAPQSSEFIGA
Sequence of BLK (B-lymphoid TK) (P51451 whole entry): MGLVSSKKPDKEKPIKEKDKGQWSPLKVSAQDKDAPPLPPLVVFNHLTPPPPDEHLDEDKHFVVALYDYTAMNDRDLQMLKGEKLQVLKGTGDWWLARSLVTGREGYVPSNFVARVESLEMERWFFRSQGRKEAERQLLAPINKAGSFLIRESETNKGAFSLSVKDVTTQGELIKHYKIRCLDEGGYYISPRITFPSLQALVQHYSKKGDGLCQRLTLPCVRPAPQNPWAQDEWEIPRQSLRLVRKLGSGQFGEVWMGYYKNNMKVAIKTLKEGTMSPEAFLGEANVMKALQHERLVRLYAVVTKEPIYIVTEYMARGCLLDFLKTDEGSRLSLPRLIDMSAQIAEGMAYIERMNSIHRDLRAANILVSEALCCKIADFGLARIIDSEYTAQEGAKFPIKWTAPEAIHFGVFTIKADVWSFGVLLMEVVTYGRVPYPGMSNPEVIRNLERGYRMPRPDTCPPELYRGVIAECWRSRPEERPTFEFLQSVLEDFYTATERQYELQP
Sequence of CYP 3A4 (P08684 whole entry): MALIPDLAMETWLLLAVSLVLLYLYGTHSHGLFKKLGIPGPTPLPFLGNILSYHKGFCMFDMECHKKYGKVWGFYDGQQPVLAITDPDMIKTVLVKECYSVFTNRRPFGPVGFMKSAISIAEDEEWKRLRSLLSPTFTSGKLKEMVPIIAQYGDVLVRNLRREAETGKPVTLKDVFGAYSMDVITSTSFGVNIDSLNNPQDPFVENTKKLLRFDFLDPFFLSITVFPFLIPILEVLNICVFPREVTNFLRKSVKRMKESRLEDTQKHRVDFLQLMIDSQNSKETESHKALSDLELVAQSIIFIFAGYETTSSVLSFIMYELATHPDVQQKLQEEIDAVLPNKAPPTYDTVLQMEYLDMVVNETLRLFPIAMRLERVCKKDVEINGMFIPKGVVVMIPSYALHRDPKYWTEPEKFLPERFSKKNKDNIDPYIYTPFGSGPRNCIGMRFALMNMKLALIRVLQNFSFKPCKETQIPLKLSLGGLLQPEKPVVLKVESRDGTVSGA

SMILES	fraction unbound at 6 h, 1 μM [1, 17]	fraction unbound at 6 h, 1 μM [1, 18]	fraction unbound at 6 h, 1 μM [1, 19]	chromatographic logP [2]	remaining activity at 0.3 µM [4]	GI50 [5]	CC50 [5]	GI50 [6]	CC50 [6]	GI50 [7]	CC50 [7]	GI50 [8]	CC50 [8]	GI50 [9]	CC50 [9]	remaining activity at 0.3 µM [10]	remaining activity at 0.3 µM [11]	GI50 [12]	CC50 [12]	GI50 [13]	other results
CN(C)C/C=C/C(=O)Nc1cc2c(Nc3ccc(F)c(Cl)c3)ncnc2cc1O[C@H]1CCOC1 [Afatinib, reference compound]	0.08	0.0666	0.0896	4.26	–	–	–	–	–	–	–	–	–	–	–	–	–	–	–	–	–
CN(C)C/C=C/C(=O)Nc1cc2c(Nc3cccc(Cl)c3F)ncnc2cc1OCCOC(F)F.O=C(O)/C=C\C(=O)O [Example I-5-MA, (E)-N-[4-(3-chloro-2-fluoro-anilino)-7-[2-(difluoromethoxy)ethoxy]quinazolin-6-yl]-4-(dimethylamino)but-2-enamide dimaleic acid salt]	0.117	0.0975	0.0771	3.57	–	–	–	–	–	–	–	–	–	–	–	–	–	–	–	–	IC50 [3]: 42 µM
CN(C)C/C=C/C(=O)Nc1cc2c(Nc3ccc(F)c(Cl)c3F)ncnc2cc1OCCOC(F)F.O=C(O)/C=C\C(=O)O.O=C(O)/C=C\C(=O)O [Example I-9-MA, (E)-N-[4-(3-chloro-2,4-difluoro-anilino)-7-[2-(difluoromethoxy)ethoxy]quinazolin-6-yl]-4-(dimethylamino)but-2-enamide di-maleic acid salt]	–	–	–	–	0.5%	< 0.01 µM	9.17 µM	2.05 µM	33 µM	< 0.01 µM	88.1 µM	0.999 µM	32.4 µM	< 0.01 µM	27.7 µM	0%	3.5%	1.4 µM	57.8 µM	0.248 µM	CC50 [13]: 26.6 µM; remaining activity at 0.3 µM [14]: 1.8%; GI50 [15]: < 0.01 µM; CC50 [15]: 19.6 µM; remaining activity at 0.3 µM [16]: 0%
O=C(/C=C/CN1CCCCC1)Nc1cc2c(Nc3ccc(F)c(Cl)c3F)ncnc2cc1OCCOC(F)F.O=C(O)/C=C\C(=O)O.O=C(O)/C=C\C(=O)O [Example I-10-MA, (E)-N-[4-(3-chloro-2,4-difluoro-anilino)-7-[2-(difluoromethoxy)ethoxy]quinazolin-6-yl]-4-(1-piperidyl)but-2-enamide di-maleic acid salt]	–	–	–	–	0.3%	0.0559 µM	7.8 µM	1.91 µM	16 µM	0.0814 µM	> 100 µM	1.31 µM	59.9 µM	0.0405 µM	36 µM	0.4%	2.4%	1.84 µM	59.8 µM	0.929 µM	CC50 [13]: > 100 µM; remaining activity at 0.3 µM [14]: 3.2%; GI50 [15]: 0.0347 µM; CC50 [15]: 23.9 µM; remaining activity at 0.3 µM [16]: 0.05%
